Tested on: 945468-187-T-J2-PDC spheroids viability
Experiment: Anticancer human tumor 945468-187-T-J2-PDC patient-derived rectal carcinoma cell line growth inhibition [PI3K]
Details: spheroids with HUVEC and MSC; for viability, T/C: stronger effect = lower value
Method in brief: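 Stroma-containing spheroids: tumor line, pooled-donor HUVEC, hMSC. Treatments: targeted agents with PI3K inhibitors. Dosing: clinically relevant, half-log spacing, 10 microM ceiling without known Cmax. Read-out: cell viability.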

[1] = curve of first compound, second compound 0.0316 µM
[2] = curve of first compound, second compound 0.1 µM
[3] = curve of first compound, second compound 0.316 µM
[4] = curve of first compound, second compound 1 µM
[5] = curve of first compound, second compound 3.16 µM
[6] = curve of first compound, second compound 10 µM
[7] = second compound 0.0316 µM, first compound 0.000316 µM
[8] = second compound 0.0316 µM, first compound 0.001 µM
[9] = second compound 0.0316 µM, first compound 0.00316 µM
[10] = second compound 0.0316 µM, first compound 0.01 µM
[11] = second compound 0.0316 µM, first compound 0.0316 µM
[12] = second compound 0.0316 µM, first compound 0.1 µM
[13] = second compound 0.1 µM, first compound 0.000316 µM
[14] = second compound 0.1 µM, first compound 0.001 µM
[15] = second compound 0.1 µM, first compound 0.00316 µM
[16] = second compound 0.1 µM, first compound 0.01 µM
[17] = second compound 0.1 µM, first compound 0.0316 µM
[18] = second compound 0.1 µM, first compound 0.1 µM
[19] = second compound 0.316 µM, first compound 0.000316 µM
[20] = second compound 0.316 µM, first compound 0.001 µM
[21] = second compound 0.316 µM, first compound 0.00316 µM
[22] = second compound 0.316 µM, first compound 0.01 µM
[23] = second compound 0.316 µM, first compound 0.0316 µM
[24] = second compound 0.316 µM, first compound 0.1 µM
[25] = second compound 1 µM, first compound 0.000316 µM
[26] = second compound 1 µM, first compound 0.001 µM
[27] = second compound 1 µM, first compound 0.00316 µM
[28] = second compound 1 µM, first compound 0.01 µM
[29] = second compound 1 µM, first compound 0.0316 µM
[30] = second compound 1 µM, first compound 0.1 µM
[31] = second compound 3.16 µM, first compound 0.000316 µM
[32] = second compound 3.16 µM, first compound 0.001 µM
[33] = second compound 3.16 µM, first compound 0.00316 µM
[34] = second compound 3.16 µM, first compound 0.01 µM
[35] = second compound 3.16 µM, first compound 0.0316 µM
[36] = second compound 3.16 µM, first compound 0.1 µM
[37] = second compound 10 µM, first compound 0.000316 µM
[38] = second compound 10 µM, first compound 0.001 µM
[39] = second compound 10 µM, first compound 0.00316 µM
[40] = second compound 10 µM, first compound 0.01 µM
[41] = second compound 10 µM, first compound 0.0316 µM
[42] = second compound 10 µM, first compound 0.1 µM
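Further: spheroids exposed to compounds for seven days before reading.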

Structure (SMILES): CC(C)n1nc(-c2ccc3oc(N)nc3c2)c2c(N)ncnc21 + Cc1nc(NC(=O)N2CCCC2C(N)=O)sc1-c1ccnc(C(C)(C)C(F)(F)F)c1
- IC50 [1]: > 100 nM
- IC50 [2]: > 100 nM
- IC50 [3]: > 100 nM
- IC50 [4]: > 100 nM
- IC50 [5]: 58.3 nM
- IC50 [6]: 21.3 nM
- viability, T/C [7]: 91.4%
- viability, T/C [8]: 109%
- viability, T/C [9]: 69.1%
- viability, T/C [10]: 83.5%
- viability, T/C [11]: 77.9%
- viability, T/C [12]: 71.2%
- viability, T/C [13]: 103%
- viability, T/C [14]: 77.7%
- viability, T/C [15]: 88.6%
- viability, T/C [16]: 81.4%
- viability, T/C [17]: 84.9%
- viability, T/C [18]: 55.6%
- viability, T/C [19]: 65.9%
- viability, T/C [20]: 68.2%
- viability, T/C [21]: 80.4%
- viability, T/C [22]: 81.5%
- viability, T/C [23]: 75.3%
- viability, T/C [24]: 68.8%
- viability, T/C [25]: 70.3%
- viability, T/C [26]: 80.6%
- viability, T/C [27]: 73.2%
- viability, T/C [28]: 91.5%
- viability, T/C [29]: 75.3%
- viability, T/C [30]: 57.9%
- viability, T/C [31]: 77%
- viability, T/C [32]: 68.9%
- viability, T/C [33]: 75.2%
- viability, T/C [34]: 78.1%
- viability, T/C [35]: 64%
- viability, T/C [36]: 37.6%
- viability, T/C [37]: 77.5%
- viability, T/C [38]: 62.4%
- viability, T/C [39]: 66.9%
- viability, T/C [40]: 58.7%
- viability, T/C [41]: 46.5%
- viability, T/C [42]: 27.2%

Structure (SMILES): CC(C)n1nc(-c2ccc3oc(N)nc3c2)c2c(N)ncnc21 + CC(Nc1ncnc2nc[nH]c12)c1cc2cccc(Cl)c2c(=O)n1-c1ccccc1
- IC50 [1]: > 100 nM
- IC50 [2]: > 100 nM
- IC50 [3]: > 100 nM
- IC50 [4]: > 100 nM
- IC50 [5]: > 100 nM
- IC50 [6]: > 100 nM
- viability, T/C [7]: 93.8%
- viability, T/C [8]: 87.3%
- viability, T/C [9]: 96.4%
- viability, T/C [10]: 107%
- viability, T/C [11]: 117%
- viability, T/C [12]: 62.8%
- viability, T/C [13]: 96.2%
- viability, T/C [14]: 94.3%
- viability, T/C [15]: 99.4%
- viability, T/C [16]: 84.2%
- viability, T/C [17]: 115%
- viability, T/C [18]: 73.5%
- viability, T/C [19]: 97.1%
- viability, T/C [20]: 89%
- viability, T/C [21]: 94.7%
- viability, T/C [22]: 134%
- viability, T/C [23]: 96.1%
- viability, T/C [24]: 71%
- viability, T/C [25]: 87.6%
- viability, T/C [26]: 136%
- viability, T/C [27]: 95.8%
- viability, T/C [28]: 93.2%
- viability, T/C [29]: 78.2%
- viability, T/C [30]: 55%
- viability, T/C [31]: 85.5%
- viability, T/C [32]: 107%
- viability, T/C [33]: 90.3%
- viability, T/C [34]: 106%
- viability, T/C [35]: 92.9%
- viability, T/C [36]: 62.3%
- viability, T/C [37]: 109%
- viability, T/C [38]: 84.5%
- viability, T/C [39]: 108%
- viability, T/C [40]: 88.4%
- viability, T/C [41]: 78.2%
- viability, T/C [42]: 82.8%

Structure (SMILES): C#Cc1c(F)ccc2cc(O)cc(-c3ncc4c(N5CC6CCC(C5)N6)nc(OCC56CCCN5CC(F)C6)nc4c3F)c12 (centres undefined) + Cc1nc(NC(=O)N2CCCC2C(N)=O)sc1-c1ccnc(C(C)(C)C(F)(F)F)c1
- IC50 [1]: > 10000 nM
- IC50 [2]: > 10000 nM
- IC50 [3]: > 10000 nM
- IC50 [4]: > 10000 nM
- IC50 [5]: > 10000 nM
- IC50 [6]: > 10000 nM
- viability, T/C [11]: 110%
- viability, T/C [12]: 110%
- viability, T/C (second compound 0.0316 µM, first compound 0.316 µM): 105%
- viability, T/C (second compound 0.0316 µM, first compound 1 µM): 103%
- viability, T/C (second compound 0.0316 µM, first compound 3.16 µM): 135%
- viability, T/C (second compound 0.0316 µM, first compound 10 µM): 107%
- viability, T/C [17]: 125%
- viability, T/C [18]: 114%
- viability, T/C (second compound 0.1 µM, first compound 0.316 µM): 102%
- viability, T/C (second compound 0.1 µM, first compound 1 µM): 107%
- viability, T/C (second compound 0.1 µM, first compound 3.16 µM): 136%
- viability, T/C (second compound 0.1 µM, first compound 10 µM): 105%
- viability, T/C [23]: 103%
- viability, T/C [24]: 100%
- viability, T/C (second compound 0.316 µM, first compound 0.316 µM): 116%
- viability, T/C (second compound 0.316 µM, first compound 1 µM): 102%
- viability, T/C (second compound 0.316 µM, first compound 3.16 µM): 164%
- viability, T/C (second compound 0.316 µM, first compound 10 µM): 99.1%
- viability, T/C [29]: 125%
- viability, T/C [30]: 93.6%
- viability, T/C (second compound 1 µM, first compound 0.316 µM): 109%
- viability, T/C (second compound 1 µM, first compound 1 µM): 116%
- viability, T/C (second compound 1 µM, first compound 3.16 µM): 106%
- viability, T/C (second compound 1 µM, first compound 10 µM): 90.5%
- viability, T/C [35]: 85.6%
- viability, T/C [36]: 85.8%
- viability, T/C (second compound 3.16 µM, first compound 0.316 µM): 95.4%
- viability, T/C (second compound 3.16 µM, first compound 1 µM): 94.1%
- viability, T/C (second compound 3.16 µM, first compound 3.16 µM): 94%
- viability, T/C (second compound 3.16 µM, first compound 10 µM): 117%
- viability, T/C [41]: 85.5%
- viability, T/C [42]: 73.2%
- viability, T/C (second compound 10 µM, first compound 0.316 µM): 99%
- viability, T/C (second compound 10 µM, first compound 1 µM): 92.6%
- viability, T/C (second compound 10 µM, first compound 3.16 µM): 77%
- viability, T/C (second compound 10 µM, first compound 10 µM): 80.9%

Structure (SMILES): C[C@@H](NC(=O)c1ncnc(N)c1Cl)c1ncc(C(=O)Nc2cc(C(F)(F)F)c(Cl)cn2)s1
- viability, T/C (compound 0.0316 µM): 115% [middle of 4 runs]
- viability, T/C (compound 0.1 µM): 95.1% [middle of 4 runs]
- viability, T/C (compound 0.316 µM): 107% [middle of 4 runs]
- viability, T/C (compound 10 µM): 94.3% [middle of 4 runs]
- IC50 (curve of compound): > 10000 nM

Structure (SMILES): COc1c(OCCCN2CCOCC2)ccc2c3n(c(=NC(=O)c4cnc(N)nc4)nc12)CCN3
- viability, T/C (compound 0.00316 µM): 102% [middle of 8 runs]
- viability, T/C (compound 0.316 µM): 40.8% [middle of 8 runs]
- viability, T/C (compound 1 µM): 22.5% [middle of 8 runs]
- IC50 (compound alone, run of 04/25/2023): 250 nM [middle of 7 runs]

Structure (SMILES): CC1(C)CCC(CN2CCN(c3ccc(C(=O)NS(=O)(=O)c4ccc(NCC5CCOCC5)c([N+](=O)[O-])c4)c(Oc4cnc5[nH]ccc5c4)c3)CC2)=C(c2ccc(Cl)cc2)C1
- viability, T/C (compound 0.316 µM): 94.6% [middle of 4 runs]
- viability, T/C (compound 1 µM): 103% [middle of 4 runs]
- viability, T/C (compound 3.16 µM): 96.3% [middle of 4 runs]
- IC50 (curve of compound): > 10000 nM

Reference: PubChem BioAssay AID1963972 (Molecular Pharmacology Branch, DTP, NCI, 2024)
